Experimental data reported in publication PMC5291402 (The Plant Pathology Journal, 2017).
In brackets after ≈: the same amount, converted by molar mass.

Legend:
[1] = test system: Xanthomonas citri subsp. citri 19-18 (XscW1), WT; assay: Streptomycin MIC/MBC of the strains used; type: cell-based
[2] = test system: Xanthomonas citri subsp. citri 10-5 (XscW2), WT; assay: Streptomycin MIC/MBC of the strains used; type: cell-based
[3] = test system: Xanthomonas citri subsp. citri 8-4 (XcsM5), rpsL41 (K42R in S12); type: cell-based
[4] = test system: Xanthomonas citri subsp. citri 57-2 (XcsM6), strB located in Tn5393; assay: Streptomycin MIC/MBC of the strains used; type: cell-based
[5] = test system: Xanthomonas citri subsp. citri 27-13 (XcsM8), rpsL41 & strB double mutant; type: cell-based
wild type strains of Xcc = assay: Streptomycin MIC, wild type strains; type: cell-based, Xanthomonas citri subsp. citri; conditions: Xanthomonas citri, read-out: MICs of wild type strains of Xcc
wild type strain XccW2 = type: in vivo, Xanthomonas citri subsp. citri
SR strain XccM8 = type: in vivo, Xanthomonas citri subsp. citri; conditions: 50 μg/ml or 100 μg/ml, SR mutant XccM8, citrus leaves

Structure (SMILES): [H]/N=C(/N)N[C@H]1[C@H](O)[C@@H](O)[C@H](O[C@@H]2O[C@@H](C)[C@](O)(C=O)[C@H]2O[C@@H]2O[C@@H](CO)[C@H](O)[C@@H](O)[C@@H]2NC)[C@@H](N/C(N)=N\[H])[C@@H]1O [Streptomycin]
- MIC [1]: 1 µg/mL
- MIC [2]: 2 µg/mL
- MIC [3]: 6,000 μg/ml
- MBC [4]: 3670 µg/mL
- MIC [4]: 3330 µg/mL
- MIC [5]: 3,000 μg/ml
- MIC (wild type strains of Xcc): 1 to 2 µg/mL (≈ 1.72 to 3.44 µM)
- delay of the first pustule formation (wild type strain XccW2; 50 μg/ml, wild type Xcc, citrus leaves (data not shown)): about 1 day
- days to form the first yellowish halo around the pustule (index 2) (wild type strain XccW2; 100 μg/ml, co-infiltrated with wild type Xcc into citrus leaves): 10 days
- suppression of symptom development (wild type strain XccW2; wild type Xcc, citrus leaves, monitored 17 days after inoculation): suppressed up to 17 days
- suppression of disease progress (SR strain XccM8): did not suppress the disease progress
